# Measured values: ChEMBL document CHEMBL1201862, “PubChem BioAssay data set” (2004)
#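 A five-concentration, 48-hour dose response in 96-well plates underlies each endpoint, interpolated linearly between surrounding concentrations. GI50 = concentration required for 50% inhibition of growth.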 Calls of active or inactive are those of the source. No stated cut-off is given here; in the data, active = GI50 up to about 1.1 µM and inactive = higher.
# Experiments:
# Test in all cases: NCI-60 cell line screen, 48 h
# NCI-H23 = system: NCI-H23
# 786-0 = system: 786-0
# TK-10 = system: TK-10
# KM12 = system: KM12
# SK-MEL-5 = system: SK-MEL-5
# SNB-75 = system: SNB-75
# EKVX = system: EKVX
# HCT-15 = system: HCT-15
# HCT-116 = system: HCT-116
# LOX IMVI = system: LOX IMVI
# SF-539 = system: SF-539
# SK-OV-3 = system: SK-OV-3
# Hs-578T = system: Hs-578T
# U-251 = system: U-251
# OVCAR-4 = system: OVCAR-4
# NCI/ADR-RES = system: NCI/ADR-RES
# SN12C = system: SN12C
# HT-29 = system: HT-29
# MOLT-4 = system: MOLT-4
# PC-3 = system: PC-3
# NCI-H460 = system: NCI-H460
# NCI-H226 = system: NCI-H226
# SNB-19 = system: SNB-19
# SW-620 = system: SW-620
# T47D = system: T47D
# A549 = system: A549
# CCRF-CEM = system: CCRF-CEM
# SF-268 = system: SF-268
# MCF7 = system: MCF7
# Malme-3M = system: Malme-3M
# DU-145 = system: DU-145
# IGROV-1 = system: IGROV-1
# HOP-92 = system: HOP-92
# UACC-62 = system: UACC-62
# M14 = system: M14
# NCI-H522 = system: NCI-H522
# K562 = system: K562
# RPMI-8226 = system: RPMI-8226
# OVCAR-8 = system: OVCAR-8
# UACC-257 = system: UACC-257
# SK-MEL-28 = system: SK-MEL-28
# UO-31 = system: UO-31
# OVCAR-3 = system: OVCAR-3
# HOP-62 = system: HOP-62
# CAKI-1 = system: CAKI-1
# HCC 2998 = system: HCC 2998
# MDA-N = system: MDA-N
# SK-MEL-2 = system: SK-MEL-2
# BT-549 = system: BT-549
# ACHN = system: ACHN
# SF-295 = system: SF-295
# COLO 205 = system: COLO 205
# MDA-MB-231 = system: MDA-MB-231
# SR = system: SR
# OVCAR-5 = system: OVCAR-5
# A498 = system: A498
# MDA-MB-435 = system: MDA-MB-435
# HL-60 = system: HL-60
smiles,measurement,setting,value
S=C(N/N=C/c1ccccn1)Nc1ccc(Cl)cc1,GI50,NCI-H23,104 nM (active)
same,GI50,786-0,60.1 nM (active)
same,GI50,TK-10,2930 nM (inactive)
same,GI50,KM12,175 nM (active)
same,GI50,SK-MEL-5,110 nM (active)
same,GI50,SNB-75,236 nM (active)
same,GI50,EKVX,68.2 nM (active)
same,GI50,HCT-15,39.8 nM
same,GI50,HCT-116,44.9 nM (active)
same,GI50,LOX IMVI,60 nM (active)
same,GI50,SF-539,364 nM (active)
same,GI50,SK-OV-3,37.8 nM (active)
same,GI50,Hs-578T,1850 nM (inactive)
same,GI50,U-251,52.8 nM (active)
same,GI50,OVCAR-4,689 nM (active)
same,GI50,NCI/ADR-RES,36.6 nM (active)
same,GI50,SN12C,320 nM (active)
same,GI50,HT-29,42.6 nM (active)
same,GI50,MOLT-4,< 10 nM (active)
same,GI50,PC-3,42.4 nM (active)
same,GI50,NCI-H460,63.5 nM (active)
same,GI50,NCI-H226,84.5 nM (active)
same,GI50,SNB-19,483 nM (active)
same,GI50,SW-620,52.8 nM (active)
same,GI50,T47D,16.9 nM (active)
same,GI50,A549,307 nM (active)
same,GI50,CCRF-CEM,< 10 nM (active)
same,GI50,SF-268,50 nM (active)
same,GI50,MCF7,48.9 nM (active)
same,GI50,Malme-3M,145 nM (active)
same,GI50,DU-145,126 nM (active)
same,GI50,IGROV-1,93.3 nM (active)
same,GI50,HOP-92,282 nM (active)
same,GI50,UACC-62,114 nM (active)
same,GI50,M14,34.7 nM (active)
same,GI50,NCI-H522,28 nM (active)
same,GI50,K562,< 10 nM (active)
same,GI50,RPMI-8226,134 nM (active)
same,GI50,OVCAR-8,33.3 nM (active)
same,GI50,UACC-257,40 nM (active)
same,GI50,SK-MEL-28,413 nM (active)
same,GI50,UO-31,51.4 nM (active)
same,GI50,OVCAR-3,< 10 nM (active)
same,GI50,HOP-62,181 nM (active)
same,GI50,CAKI-1,< 12.5 nM (active)
same,GI50,HCC 2998,590 nM (active)
same,GI50,MDA-N,933 nM (active)
same,GI50,SK-MEL-2,2140 nM (inactive)
same,GI50,BT-549,233 nM (active)
same,GI50,ACHN,45.5 nM (active)
same,GI50,SF-295,181 nM (active)
same,GI50,COLO 205,< 17.5 nM (active)
same,GI50,MDA-MB-231,54.2 nM (active)
same,GI50,SR,< 21.8 nM (active)
same,GI50,OVCAR-5,191 nM (active)
same,GI50,A498,4100 nM (inactive)
same,GI50,MDA-MB-435,373 nM (active)
same,GI50,HL-60,31.7 nM (active)
